{
  "source": "patent US20210000966A1",
  "about": "“HSP90-TARGETING CONJUGATES AND FORMULATIONS THEREOF” (TARVEDA THERAPEUTICS, INC., priority 2017, published 2021)",
  "key": {"NCI-H460 cells": {"test_system": "NCI-H460 cells", "test": "NCI-H460 tumor cell cytotoxicity assay (CellTiter-Glo)", "type": "cell-based", "conditions": "Homo sapiens, NCI-H460, 48 h", "experimental": "NCI-H460 cells (non-small cell lung cancer) were plated at 500 cells per well and incubated for 20-24 hrs at 37° C. at 5% CO2. Post cell incubation, compounds were reconstituted in DMSO to a stock concentration of 200 uM. A compound plate was then prepared containing a 10 point dilution in RPMI+10% FBS+0.25% DMSO. 5 uL of the dilution was then added for a final working concentration range of 10 uM to 0.0005 uM. Compounds and cells were then incubated for 48 hrs. Cells were then analyzed by CellTiter-Glo for ATP levels and percent inhibition calculated."}, "[1]": {"test_system": "LS174t colon tumor xenograft", "test": "LS174t colon tumor xenograft model, efficacy", "type": "in vivo, mice", "conditions": "FIG. 3A, in words"}, "PI3K": {"test_system": "PI3K", "test": "Cell free PI3K enzyme assay", "type": "biochemical", "conditions": "FIG. 6, in words", "from_the_text": "Therefore, conjugating a PI3K enzyme inhibitor payload to a HSP90 targeting ligand masked the PI3K enzyme inhibition."}, "[2]": {"test_system": "SKOV3 (ovarian cancer) tumor xenograft", "test": "SKOV3 ovarian cancer xenograft", "type": "in vivo, mice", "conditions": "Conjugate 38 IV 25 mg/kg vs Copanlisib 6 mg/kg, FIG. 3B", "experimental": "(§1) PIK3A mutations occur in about 15% to 30% of breast, endometrial and colon cancers. In additional to LS174t model, other xenograft models harboring common PIK3CA mutations were chosen for testing. In one study, mice bearing SKOV3 (ovarian cancer) tumor xenograft were treated with IV dose of Conjugate 38 at 25 mg/kg and Copanlisib at 6 mg/kg. Doses were selected based on the maximum tolerated dose. In another study, mice bearing BT474 (breast cancer) tumor xenograft were treated with IV dose of Conjugate 38 at 25 mg/kg and Copanlisib at 6 mg/kg."}, "H460 mouse tumor PK": {"test": "H460 mouse tumor PK", "type": "in vivo, mice", "conditions": "for concentration at 96 h / concentration at 144 h: mouse, in vivo, 25 mg/kg, 25 mg/kg IV, read-out: Conjugate 38 Conc. in H460 Mouse Tumor", "experimental": "Conjugate and unconjugated payload accumulation at 96 and 144 h in H460 tumor-bearing mice. Conjugate 38 was dosed at 25 mg/kg intravenously."}, "[3]": {"test_system": "H1975 cells (non-small cell lung cancer) xenograft", "test": "H1975 xenograft study", "type": "in vivo, mice", "conditions": "12.5 mg/kg twice a week intravenously, Day 19, compared to vehicle control", "experimental": "Female athymic nude mice were implanted with 5×10^6 H1975 cells (non-small cell lung cancer) per mouse in the right hind flank. Once tumors reached a volume of 50 mm^3 to 150 mm^3 they were randomized into two groups of ten to obtain a group average starting tumor volume of 114.4 mm^3. Mice were then treated with either a vehicle control or 12.5 mg/kg of Conjugate 38. All dosing was carried out twice a week intravenously for three weeks, with five total doses being administered. Tumor volumes of the mice were measured. Final study measurements were taken on Day 19, at which point the study was terminated due to vehicle control tumor volumes approaching IACUC limits."}, "[4]": {"test": "Glucose levels post dosing in mice", "type": "in vivo", "conditions": "FIG. 7, in words", "from_the_text": "In an in vivo study in mice, glucose levels were monitored post PI3K inhibitor (Copanlisib) and Conjugate 38 dosing. […] Therefore, conjugating a PI3K enzyme inhibitor payload to a HSP90 targeting ligand reduced the normal tissue activity of glucose increase in mice."}, "[5]": {"test_system": "H460 lung cancer xenograft", "test": "H460 lung cancer xenograft model", "type": "in vivo, mice", "conditions": "FIG. 2, in words"}, "[6]": {"test_system": "BT474 (breast cancer) tumor xenograft", "test": "BT474 breast cancer xenograft", "type": "in vivo, mice", "conditions": "Conjugate 38 IV 25 mg/kg vs Copanlisib 6 mg/kg, FIG. 3C", "experimental": "as §1"}, "human total EbB2/Her2": {"test_system": "human total EbB2/Her2", "test": "HER2 degradation assay (ELISA) in BT474 cells", "type": "cell-based", "conditions": "BT-474, 16 hrs, read-out: Her2 Degradation IC50 Abs IC50", "experimental": "BT474 (breast cancer) cells were plated at 12,000 cells per well and incubated for 20-24 hrs at 37° C. at 5% CO2. Post cell incubation, compounds were reconstituted in DMSO to a stock concentration of 5 mM. A compound plate was then prepared containing a 10 point dilution in DMSO. 2 uL of these dilutions were then added to the cells for a final working concentration of 5 uM to 0.0003 uM. Compounds and cells were incubated for 16 hrs. Media was then removed, cells washed, lysed, and analyzed for human total EbB2/Her2 levels by ELISA."}, "pAKT (S473)": {"test_system": "pAKT (S473)", "test": "LS174t tumor xenograft, pharmacodynamic response", "type": "in vivo, mice", "conditions": "through the course of 48 h, FIG. 5, in words"}, "[7]": {"type": "in vivo, mice", "conditions": "LS174t xenograft, FIG. 4", "experimental": "Accumulation and retention of Conjugate 38 was tested in this tumor xenograft model."}, "Caco-2 cells": {"test_system": "Caco-2 cells", "test": "Caco-2 cell monolayer permeability assay", "type": "in vitro ADME, human", "conditions": "Caco-2", "from_the_text": "(§2) In order to test the ability of the payloads and/or conjugates to enter cells, a cell monolayer assay was utilized employing Caco-2 cells (a human epithelial colorectal adenocarcinoma cell line).\n(§3) Experimental Procedure: Caco-2 cells grown in tissue culture flasks are trypsinized, suspended in medium, and the suspensions were applied to wells of a Millipore 96 well Caco-2 plate. The cells are allowed to grow and differentiate for three weeks, feeding at 2-day intervals. For Apical to Basolateral (A→B) permeability, the test agent is added to the apical (A) side and amount of permeation is determined on the basolateral (B) side; for Basolateral to Apical (B→A) permeability, the test agent is added to the B side and the amount of permeation is determine on the A side."}, "[8]": {"test": "Caco-2 cell monolayer permeability assay", "type": "in vitro ADME, human", "conditions": "human", "from_the_text": "as §2, §3"}, "MEK": {"test_system": "MEK", "test": "MEK activity (FIG. 8C)", "type": "biochemical", "conditions": "in words", "from_the_text": "The activity of the respective payload is blocked until the linker moiety gets cleaved in the tumor and releases active unblocked payload. Through the HSP90 platform, toxicity is mitigated by masking the payload's active site until it can be delivered to the tumor.\nFIG. 8A compares the activity of Conjugate 45 and its payload (talazoparib). FIG. 8B compares the activity of Conjugate 46 and its payload (ulixertinib). FIG. 8C compares the activity of Conjugate 47 and its payload TAK-733. The data further support that attaching a payload to a HSP90 binding ligand blocks the target activity of the payload. The HSP90 bindings of the HSP90 ligands are not affected."}},
  "note": "Where two headings read alike, the source gives them in different places.",
  "data": [
    {"smiles": "CCNC(=O)c1nnc(-c2cc(C(C)C)c(O)cc2O)n1-c1ccc(CN2CCN(C(=O)Cc3ccc(OC(=O)N4CCN(CCCOc5ccc6c(c5OC)N=C(NC(=O)c5cnc(N)nc5)N5CCN=C65)CC4)cc3)CC2)cc1", "note": "[Compound 38]", "values": [
      {"measurement": "IC50", "setting": "NCI-H460 cells; n = 1, read-out: H460 in vitro cytotoxicity", "result": 8.2, "unit": "nM"},
      {"measurement": "IC50", "setting": "NCI-H460 cells; n = 2, read-out: H460 in vitro cytotoxicity", "result": 7.4, "unit": "nM"},
      {"measurement": "efficacy (tumor growth inhibition) in LS174t xenograft", "setting": "[1]", "result": "significant tumor growth inhibition"},
      {"measurement": "efficacy compared with combination therapy of copanlisib and ganetespib", "setting": "[1]; LS174t xenograft", "result": "worked much better than a combination therapy comprising copanlisib and ganetespib"},
      {"measurement": "PI3K enzyme inhibition compared with payload", "setting": "PI3K", "result": "much less active than its PI3K enzyme inhibitor payload"},
      {"measurement": "tumor growth inhibition compared to Copanlisib", "setting": "[2]", "result": "statistically significant increase in tumor growth inhibition"},
      {"measurement": "accumulation and retention in xenograft tumor tissue", "setting": "H460 mouse tumor PK; H460 tumor-bearing mice, in words", "result": "accumulated and was retained in xenograph tumor tissue"},
      {"measurement": "concentration at 96 h", "setting": "H460 mouse tumor PK; Animal ID 1", "result": 6.2, "unit": "µM"},
      {"measurement": "concentration at 96 h", "setting": "H460 mouse tumor PK; Animal ID 2", "result": 7.6, "unit": "µM"},
      {"measurement": "concentration at 96 h", "setting": "H460 mouse tumor PK; Animal ID 3", "result": 6.25, "unit": "µM"},
      {"measurement": "concentration at 96 h", "setting": "H460 mouse tumor PK; Mean", "result": 6.68, "unit": "µM"},
      {"measurement": "concentration at 144 h", "setting": "H460 mouse tumor PK; Animal ID 1", "result": 0.84, "unit": "µM"},
      {"measurement": "concentration at 144 h", "setting": "H460 mouse tumor PK; Animal ID 2", "result": 3.61, "unit": "µM"},
      {"measurement": "concentration at 144 h", "setting": "H460 mouse tumor PK; Animal ID 3", "result": 1.57, "unit": "µM"},
      {"measurement": "concentration at 144 h", "setting": "H460 mouse tumor PK; Mean", "result": 2.01, "unit": "µM"},
      {"measurement": "tumor growth inhibition", "setting": "[3]", "result": 70.8, "unit": "%"},
      {"measurement": "glucose concentration after dosing", "setting": "[4]", "result": "lower glucose concentrations than mice treated with the PI3K inhibitor payload"},
      {"measurement": "efficacy (tumor volumes) in H460 xenograft", "setting": "[5]", "result": "superior to Copanlisib alone or ganetespib alone"},
      {"measurement": "tumor growth inhibition compared to Copanlisib", "setting": "[6]", "result": "statistically significant increase in tumor growth inhibition"},
      {"measurement": "IC50", "setting": "human total EbB2/Her2", "result": 39, "unit": "nM"},
      {"measurement": "inhibition of PI3K shown by pAKT (S473)", "setting": "pAKT (S473)", "result": "significant reduction of pAKT (S473)"},
      {"measurement": "time remaining in the tumor xenograft and releasing active PI3K inhibitor payload", "setting": "[7]", "result": "> 96", "unit": "h"}
    ]},
    {"smiles": "COc1c(OCCCN2CCNCC2)ccc2c1N=C(NC(=O)c1cnc(N)nc1)N1CCN=C21", "note": "[Compound 27A]", "values": [
      {"measurement": "permeability in words", "setting": "Caco-2 cells", "result": "very low permeability"},
      {"measurement": "Papp A→B", "setting": "[8]; Caco-2, A to B direction", "result": 0.0032, "unit": "×10⁻⁶ cm/s"},
      {"measurement": "Papp B→A", "setting": "[8]; Caco-2, B to A direction", "result": 0.0162, "unit": "×10⁻⁶ cm/s"}
    ]},
    {"smiles": "CCNC(=O)c1nnc(-c2cc(C(C)C)c(O)cc2O)n1-c1ccc(N(C)C2CCN(C(=O)CCC(=O)OC[C@H](O)Cn3cnc4c(c(Nc5ccc(I)cc5F)c(F)c(=O)n4C)c3=O)CC2)cc1", "note": "[Conjugate 47]", "values": [
      {"measurement": "MEK activity compared with payload TAK-733", "setting": "MEK", "result": "lower than its payload"}
    ]}
  ]
}
